Consider one compound from patent publication US7652061B2, “N-acyl nitrogen heterocycles as ligands of peroxisome proliferator-activated receptors” (Novartis A.G., priority 2003, dated 2010).

Assay [1] has as its target T1, hPPARγ ligand binding domain (GST-hPPARγ LBD) (Homo sapiens, UniProt P37231).
T1 construct: GST-hPPARγ LBD (amino acids 175-476); made in house; host or cells: E. coli BL21(DE3), pGEX vector
T1 sequence (P37231 175-476 isoform P37231-2): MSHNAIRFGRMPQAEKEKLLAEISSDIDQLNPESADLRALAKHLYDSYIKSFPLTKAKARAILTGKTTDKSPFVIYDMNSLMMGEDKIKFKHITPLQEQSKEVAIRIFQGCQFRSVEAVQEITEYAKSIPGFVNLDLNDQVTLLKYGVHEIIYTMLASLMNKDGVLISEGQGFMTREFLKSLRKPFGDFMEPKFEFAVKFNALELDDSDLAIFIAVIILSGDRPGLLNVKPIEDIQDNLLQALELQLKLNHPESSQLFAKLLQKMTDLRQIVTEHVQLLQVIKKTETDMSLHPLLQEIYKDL
Put plainly: PPARγ functional binding assay (CARLA, TR-FRET). The class given is biochemical. The note with it: SRC-1 peptide recruitment, 3 hours at RT, read-out: EC50 in the PPARγ receptor binding assay. As for the experimental part: (§1) The in vitro functional binding to the PPARα, PPARδ and PPARγ receptors is determined as follows:
(§2) The functional binding assays for the PPARα, PPARδ and PPARγ receptors are a variation of the coactivator-dependent receptor ligand assay (CARLA) (see Krey et al., “Fatty Acids, Eicosanoids, and Hypolipidemic Agents Identified as Ligands of Peroxisome Proliferator-Activated Receptors by Coactivator-Dependent Receptor Ligand Assay”, Molecular Endocrinology, Vol. 11, pp. 779-791 (1997)). The present CARLA assays use a TR-FRET detection method previously reviewed (see Hemmila, “LANCE: Homogeneous Assay Plafform for HTS”, J. Biomol. Screening, Vol. 4, pp. 303-307 (1999); Mathis, “HTRF Technology”, J. Biomol. Screening, Vol. 4, pp. 309-313 (1999)). […] This brings the Eu-labeled anti-GST antibody and the strepavidin-labeled APC in close proximity, thereby facilitating fluorescence energy transfer. […] After mixing all components, the reaction mixture stands for 3 hours at RT before reading the TR-FRET (Time-Resolved Fluorescence Resonance Energy Transfer) signal on a Wallac Victor 2 plate reader (measuring the ratio of signals at […]). […]
On the technique in general: In TR-FRET formats the signal depends on donor and acceptor labels being close together.

Assay [2] deals with T2, hPPARα ligand binding domain (GST-hPPARα LBD) (Homo sapiens, UniProt Q07869).
T2 construct: made in house; host or cells: E. coli BL21(DE3), pGEX vector
T2 sequence (Q07869 167-468): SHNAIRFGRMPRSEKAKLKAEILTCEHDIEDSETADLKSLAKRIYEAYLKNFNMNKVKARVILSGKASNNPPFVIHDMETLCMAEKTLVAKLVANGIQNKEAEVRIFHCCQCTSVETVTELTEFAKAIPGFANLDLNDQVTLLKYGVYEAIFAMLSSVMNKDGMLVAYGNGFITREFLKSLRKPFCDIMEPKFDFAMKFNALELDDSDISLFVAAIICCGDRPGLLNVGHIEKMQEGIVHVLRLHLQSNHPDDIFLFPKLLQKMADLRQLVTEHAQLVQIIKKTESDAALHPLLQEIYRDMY
Put plainly: PPARα functional binding assay (CARLA, TR-FRET). The assay is classed as biochemical. The note with it: SRC-1 peptide recruitment, 3 hours at RT, read-out: EC50 in the PPARα receptor binding assay. How it is done: as §1, §2

SMILES strings stand for the structures.

As usually defined, the EC50 is the midpoint of the concentration-response curve. With `Cc1oc(-c2ccc(Cl)c(F)c2)nc1COc1cccc(C(C)(C)C(=O)N2CCC[C@@H]2C(=O)O)c1` [Example 9, (R)-1-(2-{3-[2-(4-Chloro-3-fluoro-phenyl)-5-methyl-oxazol-4-yl-methoxy]-phenyl}-2-methyl-propionyl)-pyrrolidine-2-carboxylic acid], the EC50 in assay [1] is roughly 1800 nM; in assay [2] it was roughly 3 nM.
